According to the kinase profiling compilation of Christmann-Franck et al. (2016):

Each compound was assayed against ABL1 (human) (UniProt P00519) (assay: radiometric filter-binding kinase assay). Settings: compound 100.0 µM; ATP 5 µM.
Sequence of ABL1 (human) (P00519 whole entry, looked up): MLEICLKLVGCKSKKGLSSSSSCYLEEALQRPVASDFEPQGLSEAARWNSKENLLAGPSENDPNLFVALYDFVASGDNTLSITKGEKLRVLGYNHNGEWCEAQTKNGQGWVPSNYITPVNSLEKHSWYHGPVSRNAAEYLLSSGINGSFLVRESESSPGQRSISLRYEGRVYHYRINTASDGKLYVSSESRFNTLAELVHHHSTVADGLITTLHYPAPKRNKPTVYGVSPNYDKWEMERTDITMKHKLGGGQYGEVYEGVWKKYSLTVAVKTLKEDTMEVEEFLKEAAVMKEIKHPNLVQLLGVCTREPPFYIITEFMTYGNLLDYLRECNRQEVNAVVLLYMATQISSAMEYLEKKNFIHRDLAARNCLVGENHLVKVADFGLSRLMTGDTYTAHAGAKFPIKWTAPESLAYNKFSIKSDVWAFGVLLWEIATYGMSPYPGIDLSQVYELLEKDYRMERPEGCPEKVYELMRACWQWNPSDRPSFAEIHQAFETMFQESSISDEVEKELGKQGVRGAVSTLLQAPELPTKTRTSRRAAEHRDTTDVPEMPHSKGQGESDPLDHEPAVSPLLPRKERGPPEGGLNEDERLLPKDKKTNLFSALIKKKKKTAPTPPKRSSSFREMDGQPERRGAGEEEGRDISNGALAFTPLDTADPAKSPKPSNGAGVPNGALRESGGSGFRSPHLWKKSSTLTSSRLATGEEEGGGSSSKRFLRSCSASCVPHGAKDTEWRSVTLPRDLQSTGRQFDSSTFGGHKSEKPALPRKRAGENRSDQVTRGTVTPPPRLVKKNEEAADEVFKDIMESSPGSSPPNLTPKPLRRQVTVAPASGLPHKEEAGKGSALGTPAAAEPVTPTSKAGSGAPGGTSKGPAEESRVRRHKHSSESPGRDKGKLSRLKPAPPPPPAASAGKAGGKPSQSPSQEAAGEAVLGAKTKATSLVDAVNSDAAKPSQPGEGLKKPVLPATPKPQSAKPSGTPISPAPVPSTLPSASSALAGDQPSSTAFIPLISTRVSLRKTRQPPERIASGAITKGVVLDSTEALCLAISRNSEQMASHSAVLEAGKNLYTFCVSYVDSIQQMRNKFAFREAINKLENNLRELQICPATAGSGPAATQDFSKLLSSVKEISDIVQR
`O=C(Nc1cnc2[nH]cnn2c1=O)c1ccccc1` showed an inhibition of 3%.
In the case of `Nc1nc2cnc(-c3ccccc3)cn2n1`, the inhibition is reported as 72%.
`Nc1cnc2c(-c3c(F)cccc3F)cccn2c1=O` showed an inhibition of 40%.
`Cc1cccc(C)c1-c1cn2nc(N)nc2cn1` was tested, and the inhibition was 14%.
`COc1ccc(-c2cc3c(=O)[nH]cnc3s2)cc1OC` was tested, and the inhibition was 34%.
With `COc1ccc(NC(=S)Nc2cnc3[nH]cnn3c2=O)cn1` the inhibition was 5%.

What follows are compounds tested against SYK (human) (UniProt P43405) (assay: radiometric filter-binding kinase assay). Settings: compound 100.0 µM; ATP 20 µM.
`O=C(Nc1cnc2[nH]cnn2c1=O)c1ccccc1` showed an inhibition of 0%.
`Nc1nc2cnc(-c3ccccc3)cn2n1` showed an inhibition of 84%.
`Nc1cnc2c(-c3c(F)cccc3F)cccn2c1=O` was tested, and the inhibition was 30%.
Work on `Cc1cccc(C)c1-c1cn2nc(N)nc2cn1` yielded an inhibition of 26%.
`COc1ccc(-c2cc3c(=O)[nH]cnc3s2)cc1OC` showed an inhibition of 0%.
With `COc1ccc(NC(=S)Nc2cnc3[nH]cnn3c2=O)cn1` the inhibition was 9%.

The compounds below were run against EPHB4 (human) (UniProt P54760) (assay: radiometric filter-binding kinase assay). Settings: compound 100.0 µM; ATP 5 µM.
`O=C(Nc1cnc2[nH]cnn2c1=O)c1ccccc1` was tested, and the inhibition was 6%.
Work on `Nc1nc2cnc(-c3ccccc3)cn2n1` yielded an inhibition of 56%.
`Nc1cnc2c(-c3c(F)cccc3F)cccn2c1=O` showed an inhibition of 39%.
`Cc1cccc(C)c1-c1cn2nc(N)nc2cn1` was tested, and the inhibition was 14%.
`COc1ccc(-c2cc3c(=O)[nH]cnc3s2)cc1OC` gave an inhibition of 0%.
In the case of `COc1ccc(NC(=S)Nc2cnc3[nH]cnn3c2=O)cn1`, the inhibition is reported as 1%.

Each compound was assayed against INSRR (human) (UniProt P14616) (assay: radiometric filter-binding kinase assay). Settings: compound 100.0 µM; ATP 5 µM.
Sequence of INSRR (human) (P14616 whole entry, looked up): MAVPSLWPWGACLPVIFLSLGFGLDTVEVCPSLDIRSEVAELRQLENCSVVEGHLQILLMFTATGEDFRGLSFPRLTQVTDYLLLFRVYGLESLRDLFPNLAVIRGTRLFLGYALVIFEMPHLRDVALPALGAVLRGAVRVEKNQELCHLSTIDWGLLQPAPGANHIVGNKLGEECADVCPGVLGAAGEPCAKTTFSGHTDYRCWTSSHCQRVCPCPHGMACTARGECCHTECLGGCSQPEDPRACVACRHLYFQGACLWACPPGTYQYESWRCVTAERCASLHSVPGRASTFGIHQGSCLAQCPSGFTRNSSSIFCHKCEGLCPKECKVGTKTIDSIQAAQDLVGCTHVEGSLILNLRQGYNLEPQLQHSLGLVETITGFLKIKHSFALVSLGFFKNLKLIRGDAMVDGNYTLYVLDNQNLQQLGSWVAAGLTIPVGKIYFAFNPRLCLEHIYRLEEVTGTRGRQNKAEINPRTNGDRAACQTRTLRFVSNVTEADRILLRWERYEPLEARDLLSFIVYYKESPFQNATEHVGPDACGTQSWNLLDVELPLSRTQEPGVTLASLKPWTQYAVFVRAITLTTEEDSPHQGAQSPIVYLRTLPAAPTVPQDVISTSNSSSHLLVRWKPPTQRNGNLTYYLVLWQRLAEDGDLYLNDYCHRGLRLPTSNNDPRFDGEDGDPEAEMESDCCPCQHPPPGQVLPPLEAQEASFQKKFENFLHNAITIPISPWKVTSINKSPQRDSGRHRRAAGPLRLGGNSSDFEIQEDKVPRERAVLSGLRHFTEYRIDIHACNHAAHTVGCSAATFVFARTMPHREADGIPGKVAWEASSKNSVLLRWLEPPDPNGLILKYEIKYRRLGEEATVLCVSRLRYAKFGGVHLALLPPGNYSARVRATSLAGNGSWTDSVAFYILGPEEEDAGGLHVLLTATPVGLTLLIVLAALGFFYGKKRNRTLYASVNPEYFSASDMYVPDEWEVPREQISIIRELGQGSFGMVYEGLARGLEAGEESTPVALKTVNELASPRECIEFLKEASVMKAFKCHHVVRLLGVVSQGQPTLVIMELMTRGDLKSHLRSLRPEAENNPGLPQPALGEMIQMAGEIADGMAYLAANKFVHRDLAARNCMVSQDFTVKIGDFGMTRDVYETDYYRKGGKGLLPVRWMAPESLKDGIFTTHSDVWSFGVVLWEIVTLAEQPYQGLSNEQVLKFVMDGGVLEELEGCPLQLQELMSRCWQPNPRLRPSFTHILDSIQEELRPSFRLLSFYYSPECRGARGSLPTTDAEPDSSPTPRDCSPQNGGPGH
In the case of `O=C(Nc1cnc2[nH]cnn2c1=O)c1ccccc1`, the inhibition is reported as 0%.
With `Nc1nc2cnc(-c3ccccc3)cn2n1` the inhibition was 71%.
With `Nc1cnc2c(-c3c(F)cccc3F)cccn2c1=O` the inhibition was 51%.
Compound `Cc1cccc(C)c1-c1cn2nc(N)nc2cn1` has an inhibition of 24%.
In the case of `COc1ccc(-c2cc3c(=O)[nH]cnc3s2)cc1OC`, the inhibition is reported as 0%.
Work on `COc1ccc(NC(=S)Nc2cnc3[nH]cnn3c2=O)cn1` yielded an inhibition of 0%.

These compounds were tested against CSNK2A1 (human) (UniProt P68400) (assay: radiometric filter-binding kinase assay). Settings: compound 100.0 µM; ATP 5 µM.
`O=C(Nc1cnc2[nH]cnn2c1=O)c1ccccc1` showed an inhibition of 0%.
In the case of `Nc1nc2cnc(-c3ccccc3)cn2n1`, the inhibition is reported as 55%.
With `Nc1cnc2c(-c3c(F)cccc3F)cccn2c1=O` the inhibition was 94%.
Work on `Cc1cccc(C)c1-c1cn2nc(N)nc2cn1` yielded an inhibition of 17%.
For `COc1ccc(-c2cc3c(=O)[nH]cnc3s2)cc1OC`, the inhibition was 31%.
With `COc1ccc(NC(=S)Nc2cnc3[nH]cnn3c2=O)cn1` the inhibition was 28%.

Each compound was assayed against IGF1R (human) (UniProt P08069) (assay: radiometric filter-binding kinase assay). Settings: compound 100.0 µM; ATP 5 µM.
Work on `O=C(Nc1cnc2[nH]cnn2c1=O)c1ccccc1` yielded an inhibition of 0%.
`Nc1nc2cnc(-c3ccccc3)cn2n1` showed an inhibition of 91%.
In the case of `Nc1cnc2c(-c3c(F)cccc3F)cccn2c1=O`, the inhibition is reported as 85%.
With `Cc1cccc(C)c1-c1cn2nc(N)nc2cn1` the inhibition was 5%.
For `COc1ccc(-c2cc3c(=O)[nH]cnc3s2)cc1OC`, the inhibition was 0%.
With `COc1ccc(NC(=S)Nc2cnc3[nH]cnn3c2=O)cn1` the inhibition was 0%.

Each compound was assayed against DYRK3 (human) (UniProt O43781) (assay: radiometric filter-binding kinase assay). Settings: compound 100.0 µM; ATP 5 µM.
Compound `O=C(Nc1cnc2[nH]cnn2c1=O)c1ccccc1` has an inhibition of 1%.
For `Nc1nc2cnc(-c3ccccc3)cn2n1`, the inhibition was 76%.
With `Nc1cnc2c(-c3c(F)cccc3F)cccn2c1=O` the inhibition was 12%.
`Cc1cccc(C)c1-c1cn2nc(N)nc2cn1` gave an inhibition of 30%.
In the case of `COc1ccc(-c2cc3c(=O)[nH]cnc3s2)cc1OC`, the inhibition is reported as 36%.
Compound `COc1ccc(NC(=S)Nc2cnc3[nH]cnn3c2=O)cn1` has an inhibition of 20%.

The compounds below were run against TBK1 (human) (UniProt Q9UHD2) (assay: radiometric filter-binding kinase assay). Settings: compound 100.0 µM; ATP 50 µM.
Work on `O=C(Nc1cnc2[nH]cnn2c1=O)c1ccccc1` yielded an inhibition of 24%.
In the case of `Nc1nc2cnc(-c3ccccc3)cn2n1`, the inhibition is reported as 72%.
`Nc1cnc2c(-c3c(F)cccc3F)cccn2c1=O` showed an inhibition of 23%.
In the case of `Cc1cccc(C)c1-c1cn2nc(N)nc2cn1`, the inhibition is reported as 21%.
`COc1ccc(-c2cc3c(=O)[nH]cnc3s2)cc1OC` showed an inhibition of 3%.
In the case of `COc1ccc(NC(=S)Nc2cnc3[nH]cnn3c2=O)cn1`, the inhibition is reported as 7%.

These compounds were tested against MELK (human) (UniProt Q14680) (assay: radiometric filter-binding kinase assay). Settings: compound 100.0 µM; ATP 50 µM.
Sequence of MELK (human) (Q14680 whole entry, looked up): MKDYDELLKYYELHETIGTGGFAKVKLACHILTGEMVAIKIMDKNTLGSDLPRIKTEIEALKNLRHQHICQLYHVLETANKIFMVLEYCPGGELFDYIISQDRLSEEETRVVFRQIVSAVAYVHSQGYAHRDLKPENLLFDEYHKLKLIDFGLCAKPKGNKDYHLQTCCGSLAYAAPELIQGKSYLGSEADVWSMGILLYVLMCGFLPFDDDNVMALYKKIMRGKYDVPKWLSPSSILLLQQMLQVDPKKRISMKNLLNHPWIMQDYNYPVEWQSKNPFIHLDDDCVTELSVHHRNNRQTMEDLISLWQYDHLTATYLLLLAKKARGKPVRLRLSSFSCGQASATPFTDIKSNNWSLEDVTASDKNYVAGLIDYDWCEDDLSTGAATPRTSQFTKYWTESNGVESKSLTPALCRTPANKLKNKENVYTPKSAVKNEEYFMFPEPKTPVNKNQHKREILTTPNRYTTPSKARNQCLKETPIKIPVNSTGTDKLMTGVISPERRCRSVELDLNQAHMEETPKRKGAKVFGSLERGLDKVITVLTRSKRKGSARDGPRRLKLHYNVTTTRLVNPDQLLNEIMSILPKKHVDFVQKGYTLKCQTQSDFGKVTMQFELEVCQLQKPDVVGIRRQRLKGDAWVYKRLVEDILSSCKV
Work on `O=C(Nc1cnc2[nH]cnn2c1=O)c1ccccc1` yielded an inhibition of 0%.
With `Nc1nc2cnc(-c3ccccc3)cn2n1` the inhibition was 13%.
`Nc1cnc2c(-c3c(F)cccc3F)cccn2c1=O` showed an inhibition of 43%.
`Cc1cccc(C)c1-c1cn2nc(N)nc2cn1` was tested, and the inhibition was 8%.
In the case of `COc1ccc(-c2cc3c(=O)[nH]cnc3s2)cc1OC`, the inhibition is reported as 22%.
In the case of `COc1ccc(NC(=S)Nc2cnc3[nH]cnn3c2=O)cn1`, the inhibition is reported as 0%.

These compounds were tested against PKN2 (human) (UniProt Q16513) (assay: radiometric filter-binding kinase assay). Settings: compound 100.0 µM; ATP 5 µM.
In the case of `O=C(Nc1cnc2[nH]cnn2c1=O)c1ccccc1`, the inhibition is reported as 0%.
Work on `Nc1nc2cnc(-c3ccccc3)cn2n1` yielded an inhibition of 44%.
`Nc1cnc2c(-c3c(F)cccc3F)cccn2c1=O` gave an inhibition of 73%.
In the case of `Cc1cccc(C)c1-c1cn2nc(N)nc2cn1`, the inhibition is reported as 93%.
For `COc1ccc(-c2cc3c(=O)[nH]cnc3s2)cc1OC`, the inhibition was 0%.
For `COc1ccc(NC(=S)Nc2cnc3[nH]cnn3c2=O)cn1`, the inhibition was 1%.

What follows are compounds tested against MAP2K1 (human) (UniProt Q02750) (assay: radiometric filter-binding kinase assay). Settings: compound 100.0 µM; ATP 5 µM.
Sequence of MAP2K1 (human) (Q02750 whole entry, looked up): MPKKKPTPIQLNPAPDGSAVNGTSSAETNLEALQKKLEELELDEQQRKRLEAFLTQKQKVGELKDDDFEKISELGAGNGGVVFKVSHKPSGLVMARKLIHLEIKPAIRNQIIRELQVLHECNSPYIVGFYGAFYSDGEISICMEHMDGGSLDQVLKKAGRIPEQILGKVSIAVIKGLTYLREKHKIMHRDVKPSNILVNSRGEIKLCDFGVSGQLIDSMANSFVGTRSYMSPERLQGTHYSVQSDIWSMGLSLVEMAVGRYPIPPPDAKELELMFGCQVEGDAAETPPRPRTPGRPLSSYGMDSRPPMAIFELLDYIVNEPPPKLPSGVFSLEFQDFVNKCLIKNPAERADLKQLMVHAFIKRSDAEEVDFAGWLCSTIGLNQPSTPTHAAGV
`O=C(Nc1cnc2[nH]cnn2c1=O)c1ccccc1` showed an inhibition of 20%.
With `Nc1nc2cnc(-c3ccccc3)cn2n1` the inhibition was 37%.
`Nc1cnc2c(-c3c(F)cccc3F)cccn2c1=O` was tested, and the inhibition was 72%.
For `Cc1cccc(C)c1-c1cn2nc(N)nc2cn1`, the inhibition was 22%.
In the case of `COc1ccc(-c2cc3c(=O)[nH]cnc3s2)cc1OC`, the inhibition is reported as 23%.
`COc1ccc(NC(=S)Nc2cnc3[nH]cnn3c2=O)cn1` showed an inhibition of 11%.

What follows are compounds tested against DYRK1A (human) (UniProt Q13627) (assay: radiometric filter-binding kinase assay). Settings: compound 100.0 µM; ATP 50 µM.
Work on `O=C(Nc1cnc2[nH]cnn2c1=O)c1ccccc1` yielded an inhibition of 0%.
`Nc1nc2cnc(-c3ccccc3)cn2n1` showed an inhibition of 77%.
Compound `Nc1cnc2c(-c3c(F)cccc3F)cccn2c1=O` has an inhibition of 55%.
For `Cc1cccc(C)c1-c1cn2nc(N)nc2cn1`, the inhibition was 19%.
Work on `COc1ccc(-c2cc3c(=O)[nH]cnc3s2)cc1OC` yielded an inhibition of 36%.
Compound `COc1ccc(NC(=S)Nc2cnc3[nH]cnn3c2=O)cn1` has an inhibition of 10%.

These compounds were tested against BTK (human) (UniProt Q06187) (assay: radiometric filter-binding kinase assay). Settings: compound 100.0 µM; ATP 50 µM.
Sequence of BTK (human) (Q06187 whole entry, looked up): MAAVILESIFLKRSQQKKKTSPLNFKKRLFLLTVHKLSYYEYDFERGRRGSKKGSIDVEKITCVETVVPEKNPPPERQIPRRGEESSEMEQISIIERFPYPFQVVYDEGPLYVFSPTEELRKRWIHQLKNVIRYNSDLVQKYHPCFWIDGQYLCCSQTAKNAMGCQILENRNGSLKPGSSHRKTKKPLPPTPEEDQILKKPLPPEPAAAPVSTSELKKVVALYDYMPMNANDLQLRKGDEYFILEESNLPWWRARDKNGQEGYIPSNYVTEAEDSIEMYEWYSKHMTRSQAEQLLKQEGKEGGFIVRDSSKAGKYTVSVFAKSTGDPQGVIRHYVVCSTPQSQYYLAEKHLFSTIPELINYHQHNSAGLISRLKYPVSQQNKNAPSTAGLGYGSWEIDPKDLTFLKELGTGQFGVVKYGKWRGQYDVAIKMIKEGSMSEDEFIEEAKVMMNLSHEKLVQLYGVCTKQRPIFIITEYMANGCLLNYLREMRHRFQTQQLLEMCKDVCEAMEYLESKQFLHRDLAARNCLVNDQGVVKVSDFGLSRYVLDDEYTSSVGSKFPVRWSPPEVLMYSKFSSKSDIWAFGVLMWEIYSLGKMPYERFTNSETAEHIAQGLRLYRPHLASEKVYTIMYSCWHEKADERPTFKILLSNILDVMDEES
`O=C(Nc1cnc2[nH]cnn2c1=O)c1ccccc1` showed an inhibition of 17%.
`Nc1nc2cnc(-c3ccccc3)cn2n1` showed an inhibition of 67%.
Compound `Nc1cnc2c(-c3c(F)cccc3F)cccn2c1=O` has an inhibition of 67%.
`Cc1cccc(C)c1-c1cn2nc(N)nc2cn1` gave an inhibition of 44%.
Compound `COc1ccc(-c2cc3c(=O)[nH]cnc3s2)cc1OC` has an inhibition of 29%.
Compound `COc1ccc(NC(=S)Nc2cnc3[nH]cnn3c2=O)cn1` has an inhibition of 25%.

Each compound was assayed against CHEK2 (human) (UniProt O96017) (assay: radiometric filter-binding kinase assay). Settings: compound 100.0 µM; ATP 20 µM.
`O=C(Nc1cnc2[nH]cnn2c1=O)c1ccccc1` showed an inhibition of 0%.
`Nc1nc2cnc(-c3ccccc3)cn2n1` was tested, and the inhibition was 81%.
`Nc1cnc2c(-c3c(F)cccc3F)cccn2c1=O` showed an inhibition of 25%.
For `Cc1cccc(C)c1-c1cn2nc(N)nc2cn1`, the inhibition was 13%.
Work on `COc1ccc(-c2cc3c(=O)[nH]cnc3s2)cc1OC` yielded an inhibition of 38%.
With `COc1ccc(NC(=S)Nc2cnc3[nH]cnn3c2=O)cn1` the inhibition was 14%.

Each compound was assayed against PIM2 (human) (UniProt Q9P1W9) (assay: radiometric filter-binding kinase assay). Settings: compound 100.0 µM; ATP 5 µM.
For `O=C(Nc1cnc2[nH]cnn2c1=O)c1ccccc1`, the inhibition was 0%.
Compound `Nc1nc2cnc(-c3ccccc3)cn2n1` has an inhibition of 16%.
Compound `Nc1cnc2c(-c3c(F)cccc3F)cccn2c1=O` has an inhibition of 21%.
`Cc1cccc(C)c1-c1cn2nc(N)nc2cn1` was tested, and the inhibition was 2%.
`COc1ccc(-c2cc3c(=O)[nH]cnc3s2)cc1OC` showed an inhibition of 25%.
`COc1ccc(NC(=S)Nc2cnc3[nH]cnn3c2=O)cn1` was tested, and the inhibition was 0%.

What follows are compounds tested against EPHB1 (human) (UniProt P54762) (assay: radiometric filter-binding kinase assay). Settings: compound 100.0 µM; ATP 20 µM.
`O=C(Nc1cnc2[nH]cnn2c1=O)c1ccccc1` gave an inhibition of 1%.
Compound `Nc1nc2cnc(-c3ccccc3)cn2n1` has an inhibition of 48%.
`Nc1cnc2c(-c3c(F)cccc3F)cccn2c1=O` was tested, and the inhibition was 0%.
`Cc1cccc(C)c1-c1cn2nc(N)nc2cn1` gave an inhibition of 22%.
`COc1ccc(-c2cc3c(=O)[nH]cnc3s2)cc1OC` was tested, and the inhibition was 4%.
With `COc1ccc(NC(=S)Nc2cnc3[nH]cnn3c2=O)cn1` the inhibition was 1%.

Each compound was assayed against STK3 (human) (UniProt Q13188) (assay: radiometric filter-binding kinase assay). Settings: compound 100.0 µM; ATP 20 µM.
For `O=C(Nc1cnc2[nH]cnn2c1=O)c1ccccc1`, the inhibition was 0%.
`Nc1nc2cnc(-c3ccccc3)cn2n1` was tested, and the inhibition was 6%.
`Nc1cnc2c(-c3c(F)cccc3F)cccn2c1=O` was tested, and the inhibition was 64%.
With `Cc1cccc(C)c1-c1cn2nc(N)nc2cn1` the inhibition was 9%.
`COc1ccc(-c2cc3c(=O)[nH]cnc3s2)cc1OC` showed an inhibition of 9%.
`COc1ccc(NC(=S)Nc2cnc3[nH]cnn3c2=O)cn1` was tested, and the inhibition was 0%.

What follows are compounds tested against NEK2 (human) (UniProt P51955) (assay: radiometric filter-binding kinase assay). Settings: compound 100.0 µM; ATP 50 µM.
For `O=C(Nc1cnc2[nH]cnn2c1=O)c1ccccc1`, the inhibition was 0%.
With `Nc1nc2cnc(-c3ccccc3)cn2n1` the inhibition was 77%.
`Nc1cnc2c(-c3c(F)cccc3F)cccn2c1=O` was tested, and the inhibition was 0%.
In the case of `Cc1cccc(C)c1-c1cn2nc(N)nc2cn1`, the inhibition is reported as 38%.
`COc1ccc(-c2cc3c(=O)[nH]cnc3s2)cc1OC` gave an inhibition of 0%.
`COc1ccc(NC(=S)Nc2cnc3[nH]cnn3c2=O)cn1` was tested, and the inhibition was 0%.

The compounds below were run against BRSK2 (human) (UniProt Q8IWQ3) (assay: radiometric filter-binding kinase assay). Settings: compound 100.0 µM; ATP 50 µM.
Sequence of BRSK2 (human) (Q8IWQ3 whole entry, looked up): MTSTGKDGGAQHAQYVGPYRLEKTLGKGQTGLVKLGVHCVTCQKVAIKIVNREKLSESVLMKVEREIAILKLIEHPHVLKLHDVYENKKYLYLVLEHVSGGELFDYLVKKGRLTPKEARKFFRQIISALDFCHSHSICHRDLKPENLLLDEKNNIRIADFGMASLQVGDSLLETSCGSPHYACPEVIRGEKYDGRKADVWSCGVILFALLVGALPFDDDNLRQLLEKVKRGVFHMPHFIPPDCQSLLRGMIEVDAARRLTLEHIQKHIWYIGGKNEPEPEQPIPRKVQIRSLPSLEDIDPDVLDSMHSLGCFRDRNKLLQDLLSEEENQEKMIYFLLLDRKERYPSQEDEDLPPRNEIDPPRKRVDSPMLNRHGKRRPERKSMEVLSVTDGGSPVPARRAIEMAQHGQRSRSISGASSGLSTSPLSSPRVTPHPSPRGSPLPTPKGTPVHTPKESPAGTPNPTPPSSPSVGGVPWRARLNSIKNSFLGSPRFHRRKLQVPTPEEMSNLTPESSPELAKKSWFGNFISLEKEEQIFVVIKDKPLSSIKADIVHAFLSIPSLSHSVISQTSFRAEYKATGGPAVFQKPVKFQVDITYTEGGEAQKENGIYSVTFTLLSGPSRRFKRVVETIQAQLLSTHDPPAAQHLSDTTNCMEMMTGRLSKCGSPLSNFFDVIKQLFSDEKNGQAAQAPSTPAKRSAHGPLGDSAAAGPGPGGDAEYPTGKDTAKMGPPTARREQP
Work on `O=C(Nc1cnc2[nH]cnn2c1=O)c1ccccc1` yielded an inhibition of 22%.
In the case of `Nc1nc2cnc(-c3ccccc3)cn2n1`, the inhibition is reported as 28%.
For `Nc1cnc2c(-c3c(F)cccc3F)cccn2c1=O`, the inhibition was 43%.
